Laboratory results reported in patent US7718677B2, “Methods and compositions for reduction of side effects of therapeutic treatments” (priority 2007, dated 2010).
Like-named read-outs stand apart in the source and are kept apart here.

Tests used:
[1] = test system: 6-hydroxydopamine-lesioned rats; settings: for L-dopa-induced AIMs, time course: L-dopa 8 then 12 mg/kg ip, ANOVA P<0.001; for L-dopa-induced AIMs, crossover to nicotine: rats initially without nicotine then given nicotine
Description: Animals. Experiments were performed using male Sprague-Dawley rats (initial weight 250 g) purchased from Charles River Laboratories (Gilroy, Calif.). They were housed 2 per cage under a 12-12 h light-dark cycle in a temperature-controlled room with free access to food and water. Three to four days after arrival, the rats were unilaterally lesioned with 6-hydroxydopamine as previously described (Cenci et al., 1998 Eur J Neurosci 10:2694-2706.; Cenci et al., 2002 Nat Rev Neurosci 3:574-579). During the lesioning procedure the rats were maintained under isofluorane anesthesia (2%). They were placed in a Kopf stereotaxic instrument and burr holes drilled through the skull at the following coordinates relative to the Bregma and dural surface: (1) anteroposterior, −4.4; lateral, 1.2; ventral, 7.8; tooth bar at −2.4; (2) anteroposterior, −4.0; lateral, 0.75; ventral, 8.0; tooth bar at +3.4 (Cenci et al., 1998 Eur J Neurosci 10:2694-2706.; Cenci et al., 2002 Nat Rev Neurosci 3:574-579). 6-Hydroxydopamine was dissolved in 0.02% ascorbic acid/saline at a concentration of 3 ug/ul. Two μl was stereotaxically injected at each of these sites for a total of […] into the right ascending dopamine fiber bundle. Infusion of 6-hydroxydopamine into the target area was over a 2-min period, with the cannula maintained at the site of injection for a further 2 min. All procedures conformed to the NIH Guide for the Care and Use of Laboratory Animals and were approved by the Institutional Animal Care and Use Committee.
Behavioral testing. Two and three weeks after lesioning, rats were tested for rotational behavior in an automated behavioral measurement apparatus (ROTOMAX, AccuScan Instruments Inc. Columbus, Ohio, USA). Each rat was placed in a cylindrical glass chamber for 30 min for acclimatization, after which amphetamine (4.0 mg/kg ip) was administered. The behavior was monitored for an additional 90 min, with rats making at least 100 ipsilateral turns used for further study.
Nicotine treatment. When the behavioral testing was completed, rats were treated with nicotine via the drinking water that yields an intermittent dosing regimen or via minipump that provides a constant level of nicotine. For administration via the drinking water, rats were first provided with a solution containing 1% saccharin (Sigma Chemical Co., St. Louis, Mo.) to mask the bitter taste of nicotine. After 2-3 days of acclimation, nicotine (free base, Sigma Chemical Co., St. Louis, Mo.) was added to the saccharin-containing drinking solution of the treated group (pH 7.0). Nicotine was initially given at a concentration of 25 μg/ml nicotine for 2 days.
In a separate series of experiments, rats were given nicotine continuously via Alzet minipumps (model 2004-200 μl), which secrete nicotine for 28 days. These were subcutaneously implanted according to the manufacturer's instruction. Pumps were filled with either sterilized water or nicotine base in water to deliver 2 mg/kg/d.
L-dopa treatment. Three weeks after initiation of the 50 ug/ml nicotine dose, the rats received single daily intraperitoneal injections of 8 mg/kg L-dopa methyl ester plus 15 mg/kg benserazide (both from Sigma Chemical Co., St. Louis, Mo.) (Cenci et al., 1998 Eur J Neurosci 10:2694-2706.; Cenci et al., 2002 Nat Rev Neurosci 3:574-579). After 3 weeks of daily L-dopa dosing, abnormal involuntary movements (AIMs) were quantified. These included (1) axial dystonia, contralateral twisted posturing of the neck and upper body; (2) orolingual dyskinesia, stereotyped jaw movements and contralateral tongue protrusion; and (3) forelimb dyskinesia, repetitive rhythmic jerks or dystonic posturing of the contralateral forelimb and/or grabbing movements of the contralateral paw (Cenci et al., 1998 Eur J Neurosci 10:2694-2706.; Cenci et al., 2002 Nat Rev Neurosci 3:574-579; Carta et al., 2006 Neurochem 96:1718-1727).

CN1CCCC1c1cccnc1 (centres unmarked) [Nicotine, S-3-(1-methyl-2-pyrrolidinyl)pyridine]
individual AIM components (total, axial, oral, forelimb) ([1]; constant nicotine 2 mg/kg/d via minipump vs no nicotine, FIG. 15): reduced
L-dopa-induced AIMs, time course ([1]; continuous nicotine 2 mg/kg/d via minipump, FIG. 14): significant effect
AIMs development after removal of nicotine ([1]; drinking water, rats initially on nicotine then given saccharin, FIG. 13): increase
L-dopa-induced AIMs, crossover to nicotine ([1]; drinking water, FIG. 13): reduced
L-dopa-induced AIMs, time course ([1]; intermittent nicotine 50 μg/ml in drinking water, FIG. 11): significant effect
individual AIM components (total, axial, oral, forelimb) ([1]; intermittent nicotine in drinking solution vs saccharin only, FIG. 12): reduced
AIMs development after removal of nicotine ([1]; minipump, rats initially on nicotine then given minipumps containing no nicotine, FIG. 16): increase
L-dopa-induced AIMs, crossover to nicotine ([1]; minipump, FIG. 16): reduced
body weight (minipump 2 mg/kg/d nicotine vs vehicle): similar
fluid intake (nicotine in saccharin drinking solution vs vehicle-treated): drank less
body weight (nicotine via drinking water, continued dosing, rats appeared healthy): small difference
